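Where inhibition never reached the appropriate level, the endpoint shown equals the highest concentration tested. Otherwise, values were interpolated linearly from a five-concentration, 48-hour dose response in 96-well plates. TGI marks complete inhibition of growth.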
What was measured:
Assay in all cases: NCI-60 cell line screen, 48 h
DMS 114 small cell lung = tested on: DMS 114 small cell lung
HOP-62 NSCLC = tested on: HOP-62 NSCLC
KM20L2 colon = tested on: KM20L2 colon
LXFL 529 NSCLC = tested on: LXFL 529 NSCLC
M14 melanoma = tested on: M14 melanoma
M19-MEL melanoma = tested on: M19-MEL melanoma
MALME-3M melanoma = tested on: MALME-3M melanoma
RPMI-8226 leukemia = tested on: RPMI-8226 leukemia
TK-10 renal = tested on: TK-10 renal
U251 CNS = tested on: U251 CNS
XF 498 CNS = tested on: XF 498 CNS
NCI-H226 lung = tested on: NCI-H226 lung
DU-145 prostate = tested on: DU-145 prostate
MCF7 breast = tested on: MCF7 breast
MDA-MB-435 = tested on: MDA-MB-435
NCI/ADR-RES ovarian = tested on: NCI/ADR-RES ovarian
A498 renal = tested on: A498 renal
DLD-1 colon = tested on: DLD-1 colon
DMS 273 small cell lung = tested on: DMS 273 small cell lung
SNB-78 CNS = tested on: SNB-78 CNS

Row | Structure (SMILES) | TGI (DMS 114 small cell lung) [µM] | TGI (HOP-62 NSCLC) [µM] | TGI (KM20L2 colon) [µM] | TGI (LXFL 529 NSCLC) [µM] | TGI (M14 melanoma) [µM] | TGI (M19-MEL melanoma) [µM] | TGI (MALME-3M melanoma) [µM] | TGI (RPMI-8226 leukemia) [µM] | TGI (TK-10 renal) [µM] | TGI (U251 CNS) [µM] | TGI (XF 498 CNS) [µM] | TGI (NCI-H226 lung) [µM] | TGI (DU-145 prostate) [µM] | TGI (MCF7 breast) [µM] | TGI (MDA-MB-435) [µM] | TGI (NCI/ADR-RES ovarian) [µM] | TGI (A498 renal) [µM] | TGI (DLD-1 colon) [µM] | TGI (DMS 273 small cell lung) [µM] | TGI (SNB-78 CNS) [µM]
1 | O=C1C(Cl)N(c2ccccc2[N+](=O)[O-])C1c1c[nH]c2ccccc12 (stereo not given) | > 100 | > 100 | > 100 | > 100 | > 100 | > 100 | > 100 | > 100 | > 100 | > 100 | > 100 | – | – | – | – | – | – | – | – | –
2 | O=C(N/N=C/c1cc(Br)cc(Br)c1[O-])c1ccccc1O.O=C(N/N=C/c1cc(Br)cc(Br)c1[O-])c1ccccc1O.[Fe+2] | – | 8.53 | 17.4 | – | 14.5 | – | 37.5 | – | 28.5 | 7.88 | – | 7.41 | – | – | – | – | – | – | – | –
3 | CCC(C(=O)c1ccc(OC)c(OC)c1)N(C(=O)C(F)(F)F)C(C)c1ccccc1 (stereo not given) | – | > 100 | – | – | > 100 | – | > 100 | > 100 | > 100 | > 100 | – | – | > 100 | > 100 | > 100 | > 100 | – | – | – | –
4 | NC(N)=Nc1ncccc1[N+](=O)[O-] | 30.5 | > 100 | 70.2 | – | – | – | > 88 | > 100 | – | > 31.6 | > 100 | > 100 | – | > 64.4 | – | > 100 | > 100 | > 100 | > 100 | > 100
5 | O=[N+]([O-])c1ccc(-c2ccc(-c3csc(Nc4ccccn4)n3)o2)cc1 | – | 62.4 | > 100 | 76.8 | > 100 | > 100 | > 100 | > 100 | 56.1 | 28.5 | 49.9 | – | – | – | – | – | – | > 100 | > 100 | > 100
